The data set is described as follows: Aerodynamic particle size distribution by Andersen Cascade Impactor (ACI), ten cumulative actuations, drug on plates by HPLC. It counts as physicochemical. To be noted: HFA 134a. The protocol:
The aerosol compositions of the invention described below were prepared by the following method. The required components of a composition were added into a can in the following order: drug, non-volatile additive, absolute ethanol. After crimping of the valve on to the can, the propellant was added through the valve. The weight gain of the can after each component was added was recorded to allow the percentage, by weight, of each component in the formulation to be calculated. The aerodynamic particle size distribution of each formulation was characterized using a Multistage Cascade Impactor according to the procedure described in the European Pharmacopoeia 2nd edition, 1995, part V.5.9.1. pages 15-17. In this specific case an Andersen Cascade Impactor (ACI) was used. Results represented were obtained from ten cumulative actuations or a formulation. Deposition of the drug on each ACI plate was determined by high pressure liquid chromatography. The mass median aerodynamic diameter (MMAD) and geometric standard deviation (GSD) were calculated from plots of the cumulative percentage undersize of drug collected on each ACI plate (probit scale), against the upper cut off diameter for each respective ACI plate (log10 scale). The fine particle dose of each formulation was determined from the mass of drug collected on Stages 2 through to Filter (<5.8 μm) divided by the number of actuations per experiment.

Setting [1] is: Salbutamol base 20 mg/10 ml, ethanol 15% (w/w), glycerol 0% (w/w), oleic acid 0.35% (w/w), actuator orifice 0.30 mm.
Setting [2] is: Salbutamol base 20 mg/10 ml, ethanol 15% (w/w), glycerol 1.3% (w/w), oleic acid 0.36% (w/w), actuator orifice 0.30 mm.
The mark [3] stands for this setting: combination BDP 50 mg/10 ml + Salbutamol base 20 mg/10 ml, ethanol 15.4 ± 0.2% (w/w), glycerol 0%, oleic acid 0%, actuator exit orifice 0.33 mm.
[4] abbreviates: combination BDP 50 mg/10 ml + Salbutamol base 20 mg/10 ml, ethanol 15.4 ± 0.2% (w/w), glycerol 0%, oleic acid 0.3%, actuator exit orifice 0.33 mm.
Where [5] appears, read: combination BDP 50 mg/10 ml + Salbutamol base 20 mg/10 ml, ethanol 15.4 ± 0.2% (w/w), glycerol 0%, oleic acid 1.3%, actuator exit orifice 0.30 mm.
The mark [6] stands for this setting: combination BDP 50 mg/10 ml + Salbutamol base 20 mg/10 ml, ethanol 15.4 ± 0.2% (w/w), glycerol 1.2%, oleic acid 0.3%, actuator exit orifice 0.30 mm.
Where [7] appears, read: Flunisolide 50 mg/10 ml, ethanol 15.0 ± 0.1%, menthol 0% (w/w), glycerol 0% (w/w), actuator orifice 0.30 mm.
[8] abbreviates: Flunisolide 50 mg/10 ml, ethanol 15.0 ± 0.1%, menthol 0.4% (w/w), glycerol 0.9% (w/w), actuator orifice 0.30 mm.

Each structure is given as a SMILES string.

Turning to `CC(C)(C)NCC(O)c1ccc(O)c(CO)c1` (centres unmarked) [Salbutamol base], the Emitted dose by setting is: under setting [1], 85.8 µg; under setting [2], 92.0 µg; under setting [3], 82.5 µg; under setting [4], 84.8 µg; under setting [5], 85.9 µg; under setting [6], 85.3 µg. In addition, the FPD reads like this: under setting [1], 29.1 µg; under setting [2], 25.2 µg; under setting [3], 26.9 µg; under setting [4], 24.0 µg; under setting [5], 23.9 µg; under setting [6], 25.1 µg. In addition, the GSD is 2.3 under setting [1]; 2.4 under setting [2]; 2.2 under setting [3]; 2.6 under setting [4]; 2.1 under setting [5]; 2.0 under setting [6]. The MMAD is, setting by setting: under setting [1], 1.7 μm; under setting [2], 2.8 μm; under setting [3], 1.7 μm; under setting [4], 2.0 μm; under setting [5], 2.4 μm; under setting [6], 3.0 μm.

Regarding `CC1(C)O[C@@H]2C[C@H]3[C@@H]4C[C@H](F)C5=CC(=O)C=C[C@]5(C)[C@H]4[C@@H](O)C[C@]3(C)[C@]2(C(=O)CO)O1` [Flunisolide], under setting [7], the “Emitted dose” value came out at 217.1 µg, the “Fine Particle Dose (FPD)” value stood at 76.85 µg, the GSD is given as 2.15 and the MMAD is 1.8 µm. For the same molecule, under setting [8], the “Emitted dose” value turned out to be 221.6 µg, the “Fine Particle Dose (FPD)” value stood at 77.84 µg, the GSD is 2.1 and the MMAD amounted to 2.9 µm.

The record behind these values is US7601336B2, “Pharmaceutical aerosol composition” (Chiesi Farmaceutici S.p.A., priority 1997, dated 2009).
